# Numbered stars: 1 amine (or outer) side, 2 acyl side, 3 side chain; on linkers, the order of the positions; unused ones are H or OH. Bridge positions count the residues as written; N and C are the ends. Square brackets hold non-standard residues; d marks the D form. Peptide text beside a SMILES is read from it. Phe(4-CF3) = N[C@@H](Cc1ccc(C(F)(F)F)cc1)C(=O)O; dPhe(3-CF3) = N[C@H](Cc1cccc(C(F)(F)F)c1)C(=O)O; Phe(4-tBu) = CC(C)(C)c1ccc(C[C@H](N)C(=O)O)cc1; Bip = N[C@@H](Cc1ccc(-c2ccccc2)cc1)C(=O)O; dPhe(4-NH2) = Nc1ccc(C[C@@H](N)C(=O)O)cc1; Phe(4-Br) = N[C@@H](Cc1ccc(Br)cc1)C(=O)O; Phe(4-Cl) = N[C@@H](Cc1ccc(Cl)cc1)C(=O)O; dPhe(3-Cl) = N[C@H](Cc1cccc(Cl)c1)C(=O)O; Phe(4-NH2) = Nc1ccc(C[C@H](N)C(=O)O)cc1; d1Nal = N[C@H](Cc1cccc2ccccc12)C(=O)O; d(hPhe) = N[C@H](CCc1ccccc1)C(=O)O; hPhe = N[C@@H](CCc1ccccc1)C(=O)O; 2Pal = N[C@@H](Cc1ccccn1)C(=O)O; 2Thi = N[C@@H](Cc1cccs1)C(=O)O; d2Thi = N[C@H](Cc1cccs1)C(=O)O; Suc = O=C(CCC(=O)[*:2])[*:1]; NMeA = CN[C@@H](C)C(=O)O
# Biological target: T1, TNFα / TNFα receptor (TNFα R1/Fc) (Homo sapiens, UniProt P01375)
# T1 construct: purchased R&D Systems
# T1 sequence (P01375 77-233 limits assumed, species assumed): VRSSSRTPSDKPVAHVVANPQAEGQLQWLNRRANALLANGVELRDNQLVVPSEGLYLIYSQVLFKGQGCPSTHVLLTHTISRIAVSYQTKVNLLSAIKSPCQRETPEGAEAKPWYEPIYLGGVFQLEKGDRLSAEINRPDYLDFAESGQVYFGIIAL
# Test: Inhibition of binding of TNFα to the TNFα receptor (plate ELISA competition)
# Details: Activity (IC50, inhibition of TNFα binding to TNFα R1/Fc), Table 2
# In short: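 Compound dilutions were preincubated 30 min at RT with 8.33 nM TNFα R1/Fc in PBST with 2% DMSO, then added to wells coated with 15 nM TNFα for 30 min. Bound receptor was detected with HRP anti-human Fc and TMB, read as A450.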
row,Structure (SMILES),IC50 [µM]
1,C[C@@H](C(=O)O)N(C)C(=O)[C@@H]1Cc2ccc(cc2)OCC(=O)N[C@@H](Cc2cccs2)C(=O)N[C@H](Cc2ccc(-c3ccccc3)cc2)C(=O)N[C@@H](CCc2ccccc2)C(=O)N1 [Compound 575],< 10
2,O=C1COc2ccc(cc2)C[C@@H](C(=O)NCc2nnn[nH]2)NC(=O)[C@H](CCc2ccccc2)NC(=O)[C@@H](Cc2ccc(-c3ccccc3)cc2)NC(=O)[C@H](Cc2c[nH]c3ccccc23)N1 [Compound 746],< 10

# Same assay, conditions: Table 2; read-out: Activity (IC50, inhibition of TNFα binding to TNFα R1/Fc)
row,Structure (SMILES),IC50 [µM]
1,O=C(O)[C@@H]1Cc2ccc(cc2)NC(=O)[C@H](O)[C@@H](O)C(=O)N[C@H](Cc2cccs2)C(=O)N[C@@H](Cc2ccc(-c3cccc(O)c3)cc2)C(=O)N[C@H](Cc2ccccc2)C(=O)N1 [Compound 188],> 100
2,O=C1COc2ccc(cc2)C[C@@H](C(=O)O)NC(=O)[C@H](CCc2ccccc2)NC(=O)[C@@H](Cc2ccc(-c3ccccc3)cc2)NC(=O)[C@H](CCCc2ccccc2)N1 [Compound 509],< 10
3,O=C1CCC(=O)N[C@H](Cc2cccc(C(F)(F)F)c2)C(=O)N[C@@H](Cc2ccc(C(F)(F)F)cc2)C(=O)N[C@H](Cc2ccccc2)C(=O)N[C@H](C(=O)O)Cc2ccc(cc2)N1 [Compound 166] ([dPhe(3-CF3)][Phe(4-CF3)][dF][Phe(4-NH2)]-OH; linker N-4 via Suc),30 to 100
4,O=C1COc2ccc(cc2)C[C@@H](C(=O)O)NC(=O)[C@H](CCc2ccccc2)NC(=O)[C@@H](Cc2ccc(-c3cccnc3)cc2)NC(=O)[C@H](Cc2ccncc2)N1 [Compound 665],10 to 30
5,O=C1COc2ccc(cc2)C[C@H](C(=O)O)NC(=O)[C@H](Cc2ccccc2F)NC(=O)[C@@H](Cc2ccc(-c3ccccc3)cc2)NC(=O)[C@H](Cc2ccncc2)N1 [Compound 729],> 100
6,O=C1CCC(=O)N[C@H](Cc2cccs2)C(=O)N[C@@H](Cc2ccc(-c3ccccc3)cc2)C(=O)N[C@@H](Cc2ccccn2)C(=O)N[C@H](C(=O)O)Cc2ccc(cc2)N1 [Compound 53] ([d2Thi][Bip][2Pal][Phe(4-NH2)]-OH; linker N-4 via Suc),> 100
7,O=C1CCC(=O)N[C@H](Cc2cccs2)C(=O)N[C@H](c2ccc(Br)cc2)CC(=O)N[C@H](Cc2ccccc2)C(=O)N[C@H](C(=O)O)Cc2ccc(cc2)N1 [Compound 107],> 100
8,O=C1COc2ccc(cc2)C[C@@H](C(=O)O)NC(=O)[C@H](CCc2ccccc2)NC(=O)[C@@H](Cc2ccc(-c3ccccc3)cc2)NC(=O)[C@H](CCc2ccccc2)N1 [Compound 513],< 10
9,O=C(O)CCCNC(=O)[C@@H]1Cc2ccc(cc2)OCC(=O)N[C@@H](Cc2ccc(-c3ccccc3)cc2)C(=O)N[C@H](Cc2ccc(-c3ccccc3)cc2)C(=O)N[C@@H](CCc2ccccc2)C(=O)N1 [Compound 568],30 to 100
10,O=C1CCC(=O)N[C@H](Cc2cccs2)C(=O)N[C@@H](Cc2cccs2)C(=O)N[C@H](Cc2ccccc2)C(=O)N[C@H](C(=O)O)Cc2ccc(cc2)N1 [Compound 97] ([d2Thi][2Thi][dF][Phe(4-NH2)]-OH; linker N-4 via Suc),> 100
11,O=C1CCC(=O)N[C@H](CCc2ccccc2)C(=O)N[C@@H](Cc2ccc(-c3ccccc3)cc2)C(=O)N[C@H](Cc2ccccc2)C(=O)N[C@H](C(=O)N[C@@H](CCc2ccccc2)C(=O)O)Cc2ccc(cc2)N1 [Compound 470] ([d(hPhe)][Bip][dF][Phe(4-NH2)][hPhe]-OH; linker N-4 via Suc),< 10
12,C[C@@H](C(=O)O)N(C)C(=O)[C@@H]1Cc2ccc(cc2)NC(=O)CCC(=O)N[C@H](Cc2cccs2)C(=O)N[C@@H](Cc2ccc(-c3ccccc3)cc2)C(=O)N[C@H](Cc2ccccc2)C(=O)N1 [Compound 30] ([d2Thi][Bip][dF][Phe(4-NH2)][NMeA]-OH; linker N-4 via Suc),10 to 30
13,COc1cccc(C[C@H]2NC(=O)[C@H](O)[C@@H](O)C(=O)Nc3ccc(cc3)C[C@@H](C(=O)O)NC(=O)[C@@H](Cc3ccccc3)NC(=O)[C@H](Cc3ccc(-c4ccccc4)cc3)NC2=O)c1 [Compound 317],10 to 30
14,COc1ccc(C[C@@H]2NC(=O)COc3ccc(cc3)C[C@@H](C(=O)O)NC(=O)[C@H](CCc3ccccc3)NC(=O)[C@@H](Cc3ccc(-c4ccccc4)cc3)NC2=O)cc1 [Compound 681],< 10
15,COc1ccc(C[C@@H]2NC(=O)[C@@H](Cc3cccs3)NC(=O)COc3ccc(cc3)C[C@@H](C(=O)O)NC(=O)[C@@H](CCc3ccccc3)NC2=O)cc1OC [Compound 540],> 100
16,O=C1COc2ccc(cc2)C[C@@H](C(=O)O)NC(=O)[C@H](Cc2ccc(-c3ccccc3)cc2)NC(=O)[C@@H](Cc2ccc(-c3ccccc3)cc2)NC(=O)[C@H](Cc2cccs2)N1 [Compound 726],30 to 100
17,O=C(O)CCNC(=O)[C@@H]1Cc2ccc(cc2)OCC(=O)N[C@@H](Cc2ccc(-c3ccccc3)cc2)C(=O)N[C@H](Cc2ccc(-c3ccccc3)cc2)C(=O)N[C@@H](CCc2ccccc2)C(=O)N1 [Compound 569],< 10
18,O=C1COc2ccc(cc2)C[C@H](C(=O)N[C@H](CCc2ccccc2)C(=O)O)NC(=O)[C@H](CCc2ccccc2)NC(=O)[C@@H](Cc2ccc(-c3ccccc3)cc2)NC(=O)[C@H](Cc2ccncc2)N1 [Compound 738],< 10
19,O=C1COc2ccc(cc2)C[C@@H](C(=O)N[C@H](Cc2ccc(O)cc2)C(=O)O)NC(=O)[C@H](CCc2ccccc2)NC(=O)[C@@H](Cc2ccc(-c3ccccc3)cc2)NC(=O)[C@H](Cc2ccc(-c3ccncc3)cc2)N1 [Compound 586],< 10
20,O=C1CCC(=O)N[C@H](Cc2cccc(Cl)c2)C(=O)N[C@@H](Cc2ccc(C(F)(F)F)cc2)C(=O)N[C@H](Cc2ccccc2)C(=O)N[C@H](C(=O)O)Cc2ccc(cc2)N1 [Compound 133] ([dPhe(3-Cl)][Phe(4-CF3)][dF][Phe(4-NH2)]-OH; linker N-4 via Suc),30 to 100
21,O=C1COc2ccc(cc2)C[C@@H](C(=O)O)NC(=O)[C@H](Cc2cccc(C(F)(F)F)c2)NC(=O)[C@@H](Cc2ccc(-c3ccccc3)cc2)NC(=O)[C@H](Cc2ccncc2)N1 [Compound 648],< 10
22,O=C1CCC(=O)N[C@H](CCc2ccccc2)C(=O)N[C@@H](Cc2ccc(C(F)(F)F)cc2)C(=O)N[C@H](Cc2ccccc2)C(=O)N[C@H](C(=O)O)Cc2ccc(cn2)N1 [Compound 548],30 to 100
23,O=C1CCC(=O)N[C@H](Cc2cccs2)C(=O)N[C@@H](Cc2ccc(Cl)cc2)C(=O)N[C@H](Cc2ccccc2)C(=O)N[C@H](C(=O)O)Cc2ccc(cc2)N1 [Compound 105] ([d2Thi][Phe(4-Cl)][dF][Phe(4-NH2)]-OH; linker N-4 via Suc),30 to 100

# More lines, now with the values ahead:
row,IC50 [µM],Structure (SMILES)
1,10 to 30,O=C1COc2ccc(cc2)C[C@@H](C(=O)NCS(=O)(=O)O)NC(=O)[C@H](Cc2ccccc2F)NC(=O)[C@@H](Cc2ccc(-c3ccccc3)cc2)NC(=O)[C@H](Cc2cccs2)N1 [Compound 612]
2,10 to 30,O=C(O)[C@@H]1Cc2ccc(cc2)NC(=O)[C@H](O)[C@@H](O)C(=O)N[C@H](Cc2ccc(F)c(F)c2)C(=O)N[C@@H](Cc2ccc(-c3ccccc3)cc2)C(=O)N[C@H](Cc2ccccc2)C(=O)N1 [Compound 262]
3,< 10,O=C1COc2ccc(cc2)C[C@@H](C(=O)N[C@@H](Cc2ccc(O)cc2)C(=O)O)NC(=O)[C@H](CCc2ccccc2)NC(=O)[C@@H](Cc2ccc(-c3ccccc3)cc2)NC(=O)[C@H](Cc2ccc(-c3ccccc3)cc2)N1 [Compound 567]
4,10 to 30,O=C1CCC(=O)N[C@H](CCc2ccccc2)C(=O)N[C@@H](Cc2ccc(Br)cc2)C(=O)N[C@H](Cc2ccccc2)C(=O)N[C@@H](C(=O)N[C@@H](Cc2ccccc2)C(=O)O)Cc2ccc(cc2)N1 [Compound 440] ([d(hPhe)][Phe(4-Br)][dF][dPhe(4-NH2)]F-OH; linker N-4 via Suc)
5,> 100,CC(C)(C)c1ccc(C[C@@H]2NC(=O)[C@@H](Cc3cccs3)NC(=O)CCC(=O)Nc3ccc(cc3)C[C@@H](C(=O)O)NC(=O)[C@@H](Cc3ccccc3)NC2=O)cc1 [Compound 90] ([d2Thi][Phe(4-tBu)][dF][Phe(4-NH2)]-OH; linker N-4 via Suc)
6,30 to 100,O=C1CCC(=O)N[C@H](Cc2cccc3ccccc23)C(=O)N[C@@H](Cc2ccc(C(F)(F)F)cc2)C(=O)N[C@H](Cc2ccccc2)C(=O)N[C@H](C(=O)O)Cc2ccc(cc2)N1 [Compound 142] ([d1Nal][Phe(4-CF3)][dF][Phe(4-NH2)]-OH; linker N-4 via Suc)
7,> 100,COc1ccc(C[C@H]2NC(=O)[C@H](Cc3ccc(-c4ccccc4)cc3)NC(=O)[C@@H](Cc3cccs3)NC(=O)COc3ccc(cc3)C[C@@H](C(=O)O)NC2=O)cc1 [Compound 535]
8,30 to 100,O=C1COc2ccc(cc2)C[C@@H](C(=O)O)NC(=O)[C@@H](CCc2ccccc2)NC(=O)[C@H](Cc2ccc(Cl)cc2Cl)NC(=O)[C@@H](Cc2cccs2)N1 [Compound 147]
9,< 10,O=C1COc2ccc(cc2)C[C@@H](C(=O)O)NC(=O)[C@H](CCc2ccccc2)NC(=O)[C@@H](Cc2ccc(-c3ccccc3)cc2)NC(=O)[C@H](Cc2ccccn2)N1 [Compound 660]
10,10 to 30,O=C1CCC(=O)N[C@H](Cc2cccs2)C(=O)N[C@@H](Cc2ccc(-c3ccccc3)cc2)C(=O)N[C@H](Cc2ccccc2)C(=O)N[C@H](C(=O)O)Cc2ccc(cn2)N1 [Compound 545]
11,> 100,N=C(N)NCCC[C@H]1NC(=O)CCC(=O)Nc2ccc(cc2)C[C@@H](C(=O)O)NC(=O)[C@@H](Cc2ccccc2)NC(=O)[C@H](Cc2ccc(C(F)(F)F)cc2)NC1=O [Compound 141] ([dR][Phe(4-CF3)][dF][Phe(4-NH2)]-OH; linker N-4 via Suc)
12,< 10,O=C1COc2ccc(cc2)C[C@@H](C(=O)O)NC(=O)[C@H](Cc2c[nH]c3ccccc23)NC(=O)[C@@H](Cc2ccc(-c3ccccc3)cc2)NC(=O)[C@H](Cc2cccs2)N1 [Compound 640]
13,> 100,CC(C)(C)OC(=O)C[C@H](NC(=O)[C@@H]1Cc2ccc(cc2)OCC(=O)N[C@@H](Cc2cccs2)C(=O)N[C@H](Cc2ccc(-c3ccccc3)cc2)C(=O)N[C@@H](Cc2ccccc2)C(=O)N1)C(=O)O [Compound 389]

# — patent US8338565B2, “Macrocyclic compounds for inhibition of tumor necrosis factor alpha” (Ensemble Therapeutics Corporation, priority 2008, dated 2012)
